Values joined by “and” are separate entries in the source; they are usually repeats but may differ in a detail not shown here. Equal values may be shown once. Read-outs that look alike come from different tables or passages of the source.
Legend:
[1] = test system: A. baumannii AB031; assay: Checkerboard assay; format: cell-based, Acinetobacter baumannii; details: Acinetobacter baumannii, AB031, agent alone, one value per checkerboard plate
Description: (§1) The adjuvant properties of the guanidinylated polymyxins were evaluated using the checkerboard assay as previously described. The bacterial solution was prepared as described in the antimicrobial susceptibility assay. The antibiotic of interest and the adjuvant were serially diluted two-fold along the x- and y-axis on a 96-well plate, respectively, resulting in varying concentrations of both agents in each well. Equal volumes of bacterial solution were added to the designated wells. The well consisting of bacterial solution served as the positive control, while the wells containing only media served as the negative control. The plate was then incubated at 37 °C for 18 h. After incubation, an Emax Plus microplate reader (Molecular Devices, Union City, CA, USA) was used to measure the OD at a wavelength of 590 nm to confirm the turbidity. The fractional inhibitory concentration (FIC) index was then determined to establish the relationship between the antibiotic and adjuvant. The FIC index corresponds to the sum of the FICs of the antibiotic and adjuvant. The FIC of each agent is calculated by dividing its MIC when it is used in combination by its MIC when used alone. FIC indices ≤0.5, 0.5 < x ≤ 4 and >4 indicate synergy, additivity and antagonism, respectively.

[2] = test system: P. aeruginosa P264-104354; assay: Checkerboard assay; format: cell-based, Pseudomonas aeruginosa; details: Pseudomonas aeruginosa, P264104354, agent alone, one value per checkerboard plate
Description: as §1

[3] = test system: P. aeruginosa P259-96918; assay: Checkerboard assay; format: cell-based, Pseudomonas aeruginosa; details: Pseudomonas aeruginosa, P25996918; agent alone, one value per checkerboard plate
Description: as §1

[4] = test system: P. aeruginosa P262-101856; assay: Checkerboard assay; format: cell-based, Pseudomonas aeruginosa; details: one value per checkerboard plate
Description: as §1

[5] = test system: P. aeruginosa 101243; assay: Checkerboard assay; format: cell-based, Pseudomonas aeruginosa; details: one value per checkerboard plate
Description: as §1

[6] = test system: E. coli 107115; assay: microbe, parasite or virus in culture; format: cell-based, Escherichia coli; details: Escherichia coli, 107115, agent alone, one value per checkerboard plate
Description: as §1

[7] = test system: E. coli ATCC 25922; assay: microbe, parasite or virus in culture; format: cell-based, Escherichia coli
Description: as §1

[8] = test system: P. aeruginosa PA 109084; format: cell-based, Pseudomonas aeruginosa
Description: as §1

[9] = test system: P. aeruginosa PA 88949; format: cell-based, Pseudomonas aeruginosa; details: one value per checkerboard plate
Description: as §1

[10] = test system: P. aeruginosa PA 107092; format: cell-based, Pseudomonas aeruginosa
Description: as §1

[11] = test system: P. aeruginosa PA 86052; format: cell-based, Pseudomonas aeruginosa; details: one value per checkerboard plate
Description: as §1

[12] = test system: P. aeruginosa 114228; assay: microbe, parasite or virus in culture; format: cell-based, Pseudomonas aeruginosa; details: one value per checkerboard plate
Description: as §1

[13] = test system: P. aeruginosa PAO1; assay: microbe, parasite or virus in culture; format: cell-based, Pseudomonas aeruginosa
Description: as §1

[14] = test system: A. baumannii 110193; assay: microbe, parasite or virus in culture; format: cell-based, Acinetobacter baumannii; details: Acinetobacter baumannii, 110193, agent alone, one value per checkerboard plate
Description: as §1

[15] = test system: A. baumannii ATCC 17978; assay: microbe, parasite or virus in culture; format: cell-based, Acinetobacter baumannii
Description: as §1

[16] = test system: A. baumannii 92247; assay: microbe, parasite or virus in culture; format: cell-based, Acinetobacter baumannii; details: one value per checkerboard plate
Description: as §1

[17] = test system: A. baumannii AB027; assay: microbe, parasite or virus in culture; format: cell-based, Acinetobacter baumannii; details: Acinetobacter baumannii, AB027, agent alone, one value per checkerboard plate
Description: as §1

[18] = test system: P. aeruginosa PA 107092; assay: Time-kill assay; format: cell-based, Pseudomonas aeruginosa; details: monotherapy, 8 μg/mL
Description: To study the time-dependent killing effects of the drug combinations, the time-kill kinetics were assessed. The time-kill assay was performed following the 8 μM (2 μg/mL) concentration of avibactam used in the checkerboard assay. […] This concentration also corresponds to the susceptibility breakpoint of both β-lactams.
For the preparation of the bacterial solution, an overnight grown culture was diluted in 0.85% saline solution and adjusted to 0.5 McFarland turbidity. […] The culture tubes were incubated at 37 °C, shaking at 250 rpm. At the appointed time intervals, a 100-μL aliquot was taken from each tube, serially diluted in phosphate-buffered saline (PBS) and plated on LB agar plates. The plates were incubated at 37 °C, and bacterial colonies were counted after 18 h. The bactericidal or bacteriostatic activity is determined based on the decrease in CFU over the time period. Bactericidal activity corresponds to ≥3 log10 reduction in CFU/mL, while bacteriostatic activity corresponds to <3 log10 reduction in CFU/mL.

[19] = test system: HEK293 cells; assay: Cell viability assay (PrestoBlue); format: cell-based, human; details: 48 h
Description: (§2) The cytotoxicity of the guanidinylated polymyxins was evaluated using the cell viability assay as previously described. Human embryonic kidney cells (HEK293) and liver carcinoma cells (Hep G2) were cultured in flasks with Dulbecco’s Modified Eagle’s Medium (DMEM) supplemented with 10% fetal bovine serum. The cells were incubated at 5% CO2 in a humidified atmosphere at 37 °C. Equal volumes of media (50 μL) containing approximately 8000 cells (Hek293) or 5000 cells (HepG2) were added to wells in 96-well plates. The wells containing only media with no cells served as blanks. The plate was incubated for 24 h. Double the final desired concentrations of the agent were subsequently added to each well (experimental and blanks) in a volume of 50 μL. After 48 h incubation, PrestoBlue reagent from Invitrogen (Waltham, MA, USA,) was added to a final concentration of 10% (v/v), and plates were incubated for an additional1 h at 5% CO2. Fluorescence (excitation/emission, 560/590 nm) was measured with a SpectraMax M2 plate reader (Molecular Devices, United States). Values from the blank wells were subtracted from the corresponding wells with cells. The cell viability relative to the controls with a vehicle was calculated. The plots indicate the mean ± standard deviation of two experiments with five samples each. […]

[20] = test system: Hep G2 cells; assay: Cell viability assay (PrestoBlue); format: cell-based, human; details: 48 h
Description: as §2

[21] = test system: P. aeruginosa 114228; format: cell-based, Pseudomonas aeruginosa; details: colistin-resistant isolate
Description: (§3) For the preparation of the bacterial solution, overnight grown culture was diluted in 0.85% saline solution, adjusted to 0.5 McFarland turbidity and further diluted in Mueller–Hinton broth for inoculation to a final concentration of 5 × 10^5 colony forming units/mL (CFU/mL). The agents were serially diluted two-fold in a 96-well plate, and equal volumes of bacterial solution were subsequently added to the designated wells. The well consisting of bacterial solution served as the positive control, while the well containing only media served as the negative control. The plate was then incubated at 37 °C for 18 h. After incubation, an Emax Plus microplate reader (Molecular Devices, Union City, CA, USA) was used to measure the optical density (OD) at a wavelength of 590 nm to confirm the turbidity. The antibacterial activity corresponded to the MIC, which is defined as the lowest concentration of the agent necessary to inhibit visible bacterial growth.

[22] = test system: P. aeruginosa P264-104354; format: cell-based, Pseudomonas aeruginosa; details: colistin-susceptible MDR isolate
Description: as §3

[23] = test system: P. aeruginosa P259-96918; format: cell-based, Pseudomonas aeruginosa; details: colistin-susceptible MDR isolate
Description: as §3

[24] = test system: P. aeruginosa PAO1; format: cell-based, Pseudomonas aeruginosa; details: wild-type
Description: as §3

[25] = test system: P. aeruginosa P262-101856; format: cell-based, Pseudomonas aeruginosa; details: colistin-susceptible MDR isolate
Description: as §3

[26] = test system: P. aeruginosa 101243; format: cell-based, Pseudomonas aeruginosa; details: colistin-resistant isolate
Description: as §3

[27] = test system: P. aeruginosa PA 109084; assay: MIC, broth microdilution; format: cell-based, Pseudomonas aeruginosa; details: β-lactamase harboring isolate
Description: as §3

[28] = test system: P. aeruginosa PA 88949; assay: MIC, broth microdilution; format: cell-based, Pseudomonas aeruginosa; details: β-lactamase harboring isolate
Description: as §3

[29] = test system: P. aeruginosa PA 107092; assay: MIC, broth microdilution; format: cell-based, Pseudomonas aeruginosa; details: β-lactamase harboring isolate
Description: as §3

[30] = test system: P. aeruginosa PA 86052; assay: MIC, broth microdilution; format: cell-based, Pseudomonas aeruginosa; details: β-lactamase harboring isolate
Description: as §3

[31] = test system: A. baumannii 110193; format: cell-based, Acinetobacter baumannii; details: colistin-susceptible MDR isolate
Description: as §3

[32] = test system: A. baumannii ATCC 17978; format: cell-based, Acinetobacter baumannii; details: wild-type
Description: as §3

[33] = test system: A. baumannii 92247; format: cell-based, Acinetobacter baumannii; details: colistin-resistant isolate
Description: as §3

[34] = test system: A. baumannii AB027; format: cell-based, Acinetobacter baumannii; details: colistin-susceptible MDR isolate
Description: as §3

[35] = test system: A. baumannii LAC-4; format: cell-based, Acinetobacter baumannii; details: colistin-susceptible MDR isolate
Description: as §3

[36] = test system: E. coli 94474; format: cell-based, Escherichia coli; details: colistin-resistant isolate
Description: as §3

[37] = test system: E. coli 94393; format: cell-based, Escherichia coli; details: colistin-resistant isolate
Description: as §3

[38] = test system: E. coli 107115; format: cell-based, Escherichia coli; details: colistin-susceptible MDR isolate
Description: as §3

[39] = test system: E. coli ATCC 25922; format: cell-based, Escherichia coli; details: wild-type
Description: as §3

[40] = test system: K. pneumoniae 113254; format: cell-based, Klebsiella pneumoniae; details: colistin-resistant isolate
Description: as §3

[41] = test system: K. pneumoniae 113250; format: cell-based, Klebsiella pneumoniae; details: colistin-resistant isolate
Description: as §3

[42] = test system: E. cloacae 118564; format: cell-based, Enterobacter cloacae; details: colistin-resistant isolate
Description: as §3

[43] = test system: E. cloacae 121187; format: cell-based, Enterobacter cloacae; details: colistin-resistant isolate
Description: as §3

[44] = one value per checkerboard plate

CC(C)(O/N=C(\C(=O)N[C@@H]1C(=O)N2C(C(=O)[O-])=C(C[n+]3ccccc3)CS[C@H]12)c1csc(N)n1)C(=O)O [Ceftazidime]
MIC [1]: 32 µg/mL
MIC [2]: 64 µg/mL
MIC [3]: 512 µg/mL
MIC ([4]; Pseudomonas aeruginosa, P262101856, agent alone): 8 µg/mL
MIC alone ([4]; agent alone): 16 µg/mL
MIC ([5]; Pseudomonas aeruginosa, 101243, agent alone): 64 µg/mL
MIC alone ([5]; agent alone): 32 µg/mL
MIC [6]: 512 µg/mL
Absolute MIC of antibiotic at 2 μg/mL GCol [7]: 0.063 µg/mL
Absolute MIC of antibiotic at 2 μg/mL GPMB [7]: 0.063 µg/mL
MIC ([7]; Escherichia coli, ATCC25922, 18 h, agent alone, one value per checkerboard plate, read-out: MIC alone): 0.25 µg/mL
MIC antibiotic alone [8, 44]: 64 µg/mL and 128 µg/mL
MIC antibiotic alone ([8]; plates with 8 μM avibactam): 16 µg/mL
MIC antibiotic alone [9]: 32 µg/mL
MIC antibiotic alone [10, 44]: 64 µg/mL
MIC antibiotic alone ([10]; plates with 8 μM avibactam): 16 µg/mL and 8 µg/mL
MIC antibiotic alone [11]: 64 µg/mL
MIC ([12]; Pseudomonas aeruginosa, 114228, agent alone): 4 µg/mL
MIC alone ([12]; agent alone): 8 µg/mL
Absolute MIC of antibiotic at 4 μg/mL GCol [13]: 0.25 µg/mL
MIC ([13]; Pseudomonas aeruginosa, PAO1, 18 h, agent alone, one value per checkerboard plate, read-out: MIC alone): 2 µg/mL
MIC [14]: 64 µg/mL
Absolute MIC of antibiotic at 2 μg/mL GCol [15]: 4 µg/mL
Absolute MIC of antibiotic at 2 μg/mL GPMB [15]: 4 µg/mL
MIC ([15]; Acinetobacter baumannii, ATCC17978, 18 h, agent alone, one value per checkerboard plate, read-out: MIC alone): 16 µg/mL
MIC ([16]; Acinetobacter baumannii, 92247, agent alone): 16 µg/mL
MIC alone ([16]; agent alone): 32 µg/mL
MIC [17]: 2050 µg/mL
log10 increase (bacterial growth) over 24 h [18]: ~ 2 log10

polymyxin B [PMB]
concentration up to which HEK293 cells maintained >90% viability [19]: 125 µM
concentration up to which Hep G2 cells maintained 100% viability [20]: 25 µM
MIC [21]: 64 µg/mL
MIC [22]: 2 µg/mL
MIC [23]: ≤0.0625 µg/mL
MIC [24]: 0.5 µg/mL
MIC [25]: 0.5 µg/mL
MIC [26]: >128 µg/mL
MIC [27]: 0.25 µg/mL
MIC [28]: 0.5 µg/mL
MIC [29]: 0.25 µg/mL
MIC [30]: 0.25 µg/mL
MIC [31]: 1 µg/mL
MIC [32]: 2 µg/mL
MIC [33]: 8 µg/mL
MIC [34]: 0.25 µg/mL
MIC [35]: 0.5 µg/mL
MIC [36]: 16 µg/mL
MIC [37]: 2 µg/mL
MIC [38]: ≤0.125 µg/mL
MIC [39]: 1 µg/mL
MIC [40]: >64 µg/mL
MIC [41]: >64 µg/mL
MIC [42]: >64 µg/mL
MIC [43]: >64 µg/mL

— publication PMC9598282 (Antibiotics, 2022)
